According to ChEMBL document CHEMBL1201862, “PubChem BioAssay data set” (2004):
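Cells were grown in 96-well plates and exposed to each compound for 48 hours at five concentrations; endpoints were interpolated linearly between bracketing concentrations, or set to the highest concentration if not reached. GI50 marks 50% less growth.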 Calls of active or inactive are those of the source. Rule as the data show it: active = GI50 up to about 1.1 µM and inactive = higher.

Columns and labels:
Assay in all cases: DTP human tumour cell line panel, 48 h
HOP-92 = tested on: HOP-92
RPMI-8226 = tested on: RPMI-8226
SK-MEL-5 = tested on: SK-MEL-5
A549 = tested on: A549
M14 = tested on: M14
CAKI-1 = tested on: CAKI-1
ACHN = tested on: ACHN
OVCAR-3 = tested on: OVCAR-3
DMS-273 = tested on: DMS-273
DLD-1 = tested on: DLD-1
KM12 = tested on: KM12
IGROV-1 = tested on: IGROV-1
EKVX = tested on: EKVX
M19-MEL = tested on: M19-MEL
SN12C = tested on: SN12C
HCC 2998 = tested on: HCC 2998
MDA-MB-435 = tested on: MDA-MB-435
MDA-N = tested on: MDA-N
MDA-MB-231 = tested on: MDA-MB-231
NCI/ADR-RES = tested on: NCI/ADR-RES

Measured: GI50

CN(C(=O)C12C3C4C5C3C1(C(=O)C13C6C7C8C6C1C8C73)C5C42)C(C)(C)C (centres undefined)
inactive: HOP-92 > 50 µM | RPMI-8226 > 27.3 µM | SK-MEL-5 > 50 µM | A549 > 30.1 µM | M14 > 50 µM | CAKI-1 > 50 µM | ACHN > 50 µM | OVCAR-3 > 50 µM | DMS-273 > 21.4 µM | DLD-1 > 23.2 µM | KM12 > 50 µM | IGROV-1 > 50 µM | EKVX > 50 µM | M19-MEL > 50 µM | SN12C > 50 µM | HCC 2998 > 50 µM

O=[N+]([O-])c1cc(C(F)(F)F)cc2n[se]nc12
inactive: HOP-92 2.26 µM | RPMI-8226 1.21 µM | SK-MEL-5 3.24 µM | MDA-MB-435 2.33 µM | MDA-N 1.91 µM | A549 11.4 µM | M14 1.71 µM | CAKI-1 4.6 µM | ACHN 2.65 µM | OVCAR-3 1.67 µM | DMS-273 13.2 µM | DLD-1 3.18 µM | MDA-MB-231 2.13 µM | KM12 9.33 µM | IGROV-1 5.07 µM | EKVX 5.3 µM | M19-MEL 3.33 µM | SN12C 4.88 µM | NCI/ADR-RES 2.12 µM | HCC 2998 3.98 µM

Clc1ccc(C2=Nc3ccccc3SC(c3ccc(Cl)c(Cl)c3)C2)c(Cl)c1 (centres undefined)
inactive: HOP-92 13.8 µM | RPMI-8226 2.39 µM | SK-MEL-5 18 µM | A549 21 µM | M14 16 µM | CAKI-1 13.5 µM | ACHN 14.2 µM | OVCAR-3 13.3 µM | DMS-273 11.5 µM | DLD-1 12.6 µM | KM12 7.08 µM | IGROV-1 14.7 µM | EKVX 16.4 µM | M19-MEL 16 µM | SN12C 17.2 µM | HCC 2998 14.6 µM

Clc1ccc(SCCCCCCCCCCSc2ccc(Cl)cc2)cc1
inactive: HOP-92 > 100 µM | RPMI-8226 > 100 µM | SK-MEL-5 > 55.1 µM | A549 > 73.8 µM | M14 > 100 µM | CAKI-1 > 100 µM | ACHN > 58.7 µM | OVCAR-3 > 56.8 µM | DMS-273 > 100 µM | DLD-1 > 100 µM | KM12 > 55.1 µM | IGROV-1 > 100 µM | EKVX > 70 µM | M19-MEL > 100 µM | SN12C > 100 µM | HCC 2998 > 46.1 µM

COC1O[C@@H]2COC(C)(C)O[C@@H]2C(=O)N1Nc1ccc([N+](=O)[O-])cc1 (some centres undefined)
inactive: HOP-92 > 100 µM | RPMI-8226 21 µM | SK-MEL-5 > 100 µM | A549 > 100 µM | M14 > 100 µM | CAKI-1 > 100 µM | ACHN > 100 µM | OVCAR-3 > 100 µM | DMS-273 > 100 µM | DLD-1 35.1 µM | KM12 > 100 µM | IGROV-1 > 100 µM | EKVX > 100 µM | M19-MEL > 100 µM | SN12C > 100 µM | HCC 2998 > 100 µM

CC1(C)C(=NNC(=O)C[N+](C)(C)C)C(C)(C)C1=NNC(=O)C[N+](C)(C)C
inactive: HOP-92 > 100 µM | SK-MEL-5 > 100 µM | A549 > 100 µM | M14 > 100 µM | CAKI-1 > 100 µM | ACHN > 100 µM | OVCAR-3 > 100 µM | DMS-273 42.2 µM | DLD-1 > 100 µM | KM12 > 100 µM | IGROV-1 > 100 µM | EKVX > 100 µM | M19-MEL > 100 µM | SN12C > 100 µM | HCC 2998 > 100 µM

CC1=C2C(=O)[C@H]3[C@@H](CC=C4C[C@@H](O)CC[C@@]43C)[C@@H]2CC[C@]12O[C@@H]1C[C@H](C)CN[C@H]1[C@H]2C [JERVINE]
inactive: HOP-92 11.9 µM | RPMI-8226 > 100 µM | SK-MEL-5 > 39.8 µM | MDA-MB-435 > 100 µM | MDA-N > 100 µM | A549 > 43 µM | M14 > 41.7 µM | CAKI-1 > 40.8 µM | ACHN > 41.3 µM | OVCAR-3 > 40.6 µM | DMS-273 22 µM | DLD-1 29.9 µM | MDA-MB-231 > 100 µM | KM12 > 50.4 µM | IGROV-1 > 54.7 µM | EKVX > 45.9 µM | M19-MEL 29.4 µM | SN12C > 43.4 µM | NCI/ADR-RES > 100 µM | HCC 2998 > 54 µM
